Results reported in patent EP1153612A1, “ANTICANCER AGENT POTENTIATORS” (Tsuruo, Takashi, priority 1999, dated 2000).
Where a SMILES comes first, the peptide text is derived from it. [ ]: non-standard residue; d: D form. The star is where a group is joined. Nva = CCC[C@H](N)C(=O)O; Cbz = O=C(OCc1ccccc1)*; OtBu = CC(C)(C)O*

Experiments:
[1] = test system: human colon adenocarcinoma cell HT-29; experiment: Sensitivity of cells to anticancer drug by colony formation method (M phase-synchronized cells, with or without proteasome inhibiting agent); type: cell-based; conditions: for effect of each inhibiting agent on etoposide sensitivity: etoposide 10 µg/ml, MG132, MG115 2.5 µM, E64, ZLLal 25 µM, FIG. 2; for change of cell-killing effect of camptothecin: PSI, MG132 2.5 µM 13 hours, camptothecin 4 hours, FIGS. 15 and 16
Method: In the glucose starvation environment found in the solid cancer, the effect of combined use of the proteasome inhibitor in a human colon adenocarcinoma cell HT-29 with the anticancer drug targeting topoisomerase II was tested.
Concerning culture media, for a culture condition in a normal state, RPMI 1640 medium (Nissui Pharmaceutical Co.-made) to which a 5% FBS (fetal bovine serum) was added and for the culture condition in the glucose starvation state symbolically found in the solid cancer, RPMI 1640 medium (Lifetech Oriental-made), lacking glucose, in which the 5% FBS was added were used, respectively. Culture was carried out using a CO2 incubator (Tabai Espec-made) under conditions of 5% CO2/95% air and humidity 100%.
In order to test sensitivity to the anticancer drug, the cell cycle synchronization culture methodwas employed. Nocodazol (Sigma made) was used to synchronize the cell cycle, cells in a logarithmic proliferation phase were treated with 40 ng/ml Nocodazol for 9 hours, and cells accumulated in cell division phase (Mpahse) were collected by gentle pipetting. M phase-synchronized cells collected through these steps were washed with PBS (phosphate buffered saline) followed by inoculation of 1×10^5 cells per well of 12 well-culture plate.
M phase-synchronized cells were cultured under the normal condition and the glucose starvation condition to conduct treatments with the proteasome inhibiting agent and the anticancer drug as follows. For cells under the glucose starvation condition, the culture medium, to which the proteasome inhibiting agent and the protease inhibiting agent not inhibiting proteasome were added as the control group, and the culture medium, to which no inhibiting agent has been added, was used. For cells under the normal condition, the culture medium, to which each inhibiting agent was not added, was used. After inoculation of cells, culture was carried out for 13 hours in each culture medium. […]
Sensitivity of cells to the anticancer drug was measured using the colony formation method. As described above, cells treated with the proteasome inhibiting agent and the anticancer drug were washed with PBS followed by soaking in trypsin (Lifetech Oriental made) solution and removed from a culture dish to suspend in an ordinary culture medium. These cells were inoculated again in 500 to 5000 cells for a 10 cm culture dish and cultured for 10 to 12 days to form a colony. The colony formed was fixed by 10% formaldehyde solution and stainedwith 0.01% crystal violet (Wako Pure Chemicals made) solution. Number of colony was counted and a Cell survival rate was calculated assuming that the number of colonies untreated with the anticancer drug is 1.
For reference, the proteasome inhibiting agent and the protease inhibiting agent not inhibiting proteasome used as described above were as follows. • (1) Proteasome inhibiting agent • . […] MG115 (carbobenzoxy-L-Leucyl-L-Leucyl-L-Norvalinal): final concentration 2.5 µM (Peptide Institute Inc. made) • . MG132 (carbobenzoxy-L-Leucyl-L-Leucyl-Leucinal) : final concentration 2.5 µM (Peptide Institute Inc. made) • . Lactacystin, final concentration 10 µM (Kindly supplied from The Kitasato Institute made) • (2) Protease inhibiting agent not inhibiting proteasome • . E64, final concentration 25 µM (Peptide Institute Inc. made) • . ZLLal (carbobenzoxy-L-Leucyl-L-Leucinal): final concentration 25 µM (Peptide Institute Inc. made)
The cell culture condition for both M phase-synchronized culture method and culture under the glucose starvation condition was as described in Example 1. M phase-synchronized cells were cultured in the culture medium, to which lactacystin of the final concentration 10 µM was added, or the culture medium, to which this was not added, as the proteasome inhibiting agent under the ordinary condition and the glucose starvation condition, respectively, for 13 hours. […]

[2] = test system: topoisomerase IIα; experiment: Amount of expression of topoisomerase IIα in whole cell extract by western blotting; type: cell-based, human
Excerpt: Topoisomerase II inhibiting anticancer drug stabilizes a complex (cleavable complex) consisting of the DNA and topoisomerase IIα occurring in a catalytic reaction process of topoisomerase IIα to cause DNA damage. Therefore, cell-killing effect of the topoisomerase II-inhibiting anticancer drug depends on the amount of intracellular expression of topoisomerase IIα essential for formation of the cleavable complex. Then, the amount of expression of topoisomerase IIα in the cultured cancer cell under the glucose starvation and hypoxia environment that are found in the solid cancer and the effect of the proteasome inhibiting agent to the amount of expression were examined.
The culture condition of cells is same as that described in Example 1 including the M phase synchronous culture method and culture under the glucose starvation condition. Culture under hypoxia condition, that is found in the solid cancer, similar to glucose starvation was carried out using the culture medium (that prepared by adding 5% FBS to RPMI1640 culture medium) under the ordinary condition in a Gaspack 100 anaerobic system (Becton Dickinson made). Culture under the glucose starvation condition and hypoxia condition was carried out for 14 hours .
With the purpose to prepare a whole cell extract solution, cells culture under the above described condition were washed with an ice-cooled PBS twice and then, cells were removed from the culture dish by using a cell scraper (Sumitomo Bakelite made) for collection. Cells collected were precipitated by centrifugation and then, dissolved in an SDS sample buffer to collect as the extract solution from all cells. For reference, the composition of the SDS sample buffer was 10% v/v, glycerol, 5% 2-mercaptoethanol, 2% SDS (sodium lauryl sulfate), and 62.5 mM tris-hydrochloric acid (pH 6.8).
The amount of topoisomerase IIα in the extract solution from all cells was measured by the western blotting method. The extract solution from all cells containing a total protein quantity of 30 µg was put on an SDS polyacrylamide gel (4-20 Multigel: Daiichi Pure Chemicals K.K. made) and subjected to electrophoresis in an electrophoresis buffer (25 mM tris, 192 mM glycine, and 0.1% SDS) in a 40 mA constant current for 1 hour. Subsequently, blotting was carried out in 4°C blotting buffer (25 mM tris, 192 mM glycine, and 20% methanol) in a 50 V constant voltage for 12 hours to transfer a protein separated in the SDS polyacrylamide gel to a nitrocellulose membrane. This nitrocellulose membrane was soaked in a blocking buffer (0.1% Tween 20, 4% skim milk-added PBS) for 1 hour to carry out blocking. The nitrocellulose membrane blocked was soaked in a solution, that was prepared by adding anti-topoisomerase IIα antibody (Cambridge Research Biochemicals Corp. made) of the final concentration 1 µg/ml as the primary antibody to the blocking buffer solution, for 1 hour. The nitrocellulose membrane was washed with the blocking buffer three times (5 minutes once), and then, soaked in the solution, in which a 1/1000 volume of an antimouse antibody (Amersham Pharmacia Biotech made) labeled with horse radish peroxidase as a secondary antibody had been added to the blocking buffer, for 1 hour. The nitrocellulose membrane was washed with the blocking buffer three times (5 minutes once), and then, washed with the PBS, to which 0.1% Tween 20 was added, three times (5 minutes once). The nitrocellulose membrane after completion of antibody reaction and washing was treated with the ECL reagent (Amersham Pharmacia Biotech made) after a handling manual and a topoisomerase IIα-specific signal was detected on an X-OMAT™AR film (Kodakmade). For reference, steps after blotting was carried out in a room temperature. […]
The cell culture condition for both M phase-synchronized culture method and culture under the glucose starvation condition was as described in Example 1. […]

[3] = glucose starvation condition 14 hours, PSI, MG115, MG132 5 µM, lactacystin 10 µM, E64, ZLLal 50 µM, FIG. 5(a)-(c)
[4] = glucose starvation condition, final concentration of 2.5 µM, not presented as data

## CC(C)C[C@H](NC(=O)[C@H]1O[C@@H]1C(=O)O)C(=O)NCCCCNC(=N)N [E64]
[1]; glucose starvation condition
  effect of each inhibiting agent on etoposide sensitivity: seldom change sensitivity to etoposide
[2]; [3]
  expressed amount of topoisomerase IIα: the expressed amount of topoisomerase IIα very dropped

## CCC[C@@H](C=O)NC(=O)[C@H](CC(C)C)NC(=O)[C@H](CC(C)C)NC(=O)OCc1ccccc1 [MG115, carbobenzoxy-L-Leucyl-L-Leucyl-L-Norvalinal] (Cbz-Leu-Leu-[Nva]-aldehyde)
[1]; glucose starvation condition
  effect of each inhibiting agent on etoposide sensitivity: enhance sensitivity of cells to etoposide
[2]; [3]
  expressed amount of topoisomerase IIα: the expressed amount of topoisomerase IIα does not drop
[2]; [4]
  expressed amount of topoisomerase IIα: inhibited similarly decrease in expression of topoisomerase IIα

## CC(C)C[C@@H](C=O)NC(=O)[C@H](CC(C)C)NC(=O)[C@H](CC(C)C)NC(=O)OCc1ccccc1 [MG132, carbobenzoxy-L-Leucyl-L-Leucyl-Leucinal] (Cbz-Leu-Leu-Leu-aldehyde)
[1]; glucose starvation condition
  change of cell-killing effect of camptothecin: also enhance the effect of camptothecin
  effect of each inhibiting agent on etoposide sensitivity: enhance sensitivity of cells to etoposide
[2]; [3]
  expressed amount of topoisomerase IIα: the expressed amount of topoisomerase IIα does not drop
[2]; [4]
  expressed amount of topoisomerase IIα: inhibited similarly decrease in expression of topoisomerase IIα

## CC[C@H](C)[C@H](NC(=O)OCc1ccccc1)C(=O)N[C@@H](CCC(=O)OC(C)(C)C)C(=O)N[C@@H](C)C(=O)N[C@H](C=O)CC(C)C [PSI, carbobenzoxy-L-Isoleucyl-γ-t-Butyl-L-Glutamyl-L-Alany 1-L-Leucinal] (Cbz-IE(OtBu)AL-aldehyde)
[1]; glucose starvation condition, PSI 2.5 µM, 13 hours, then etoposide 1 hour, FIG. 1
  sensitivity to etoposide of cancer cells, effect of inhibiting agent: cells show sensitivity to etoposide even in the glucose starvation condition
[1]; glucose starvation condition
  change of cell-killing effect of camptothecin: also enhance the effect of camptothecin
[2]; [3]
  expressed amount of topoisomerase IIα: the expressed amount of topoisomerase IIα does not drop
[2]; [4]
  expressed amount of topoisomerase IIα: inhibited similarly decrease in expression of topoisomerase IIα

## CC(C)C[C@@H](C=O)NC(=O)[C@H](CC(C)C)NC(=O)OCc1ccccc1 [ZLLal, carbobenzoxy-L-Leucyl-L-Leucinal]
[1]; glucose starvation condition
  effect of each inhibiting agent on etoposide sensitivity: seldom change sensitivity to etoposide
[2]; [3]
  expressed amount of topoisomerase IIα: the expressed amount of topoisomerase IIα very dropped

## N.N.[Cl][Pt][Cl] [cisplatin]
[1]; under the stress environment (glucose starvation), cisplatin 4 hours, FIG. 18
  sensitivity of cancer cells to cisplatin: high sensitivity

## CC(=O)NCCSC(=O)[C@]1([C@@H](O)C(C)C)NC(=O)[C@H](C)[C@@H]1O [decarboxy lactacystin]
[1]; decarboxy lactacystin 5 µM 13 hours, etoposide 4 hours, ordinary and glucose starvation condition, FIG. 19 top
  change of cell-killing effect of etoposide: enhances the cell-killing effect of etoposide
[1]; ordinary condition, decarboxy lactacystin 5 µM 13 hours, SN38 4 hours, FIG. 20
  change of cell-killing effect of SN38: enhances the cell-killing effect of SN38
[2]; glucose starvation condition 13 hours, decarboxy lactacystin 0.5, 1, 2.5, and 5 µM, FIG. 19 bottom
  amount of expression of topoisomerase IIα: inhibits lowering of expression of topoisomerase IIα by glucose starvation
